Assay results taken from the supplement of paper PMC7017272.
± gives the standard deviation of the averaged measurements.

What was measured:
Conditions in all cases: treatment time: 3 days
[1] = tested on: UT-SCC-24A; assay: maximal % inhibition of viability relative to DMSO; higher = stronger effect
Method: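 HNSCC cell lines (500 cells/well, 384-well) were cultured on plastic, on top of (2D) or embedded (3D) in Matrigel or human leiomyoma matrix Myogel (500 ug/mL; Myogel 3D mixed with rat collagen I). Cells were treated for 3 days with 5 ten-fold concentrations of each drug, and viability was read by CellTiter-Glo. Viability was normalised to DMSO (0% inhibition) and 100 uM benzethonium chloride (100% inhibition) controls and fitted with the FIMM DSRT pipeline to give IC50 (nM), maximal % inhibition and the drug sensitivity score (DSS). Suffixes _1/_2/_3 on drug names are replicates.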

[2] = tested on: UT-SCC-24A; assay: drug sensitivity score (DSS); higher = more sensitive
Method: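 HNSCC cell lines (500 cells/well, 384-well) were cultured on plastic, on top of (2D) or embedded (3D) in Matrigel or human leiomyoma matrix Myogel (500 ug/mL; Myogel 3D mixed with rat collagen I). Cells were treated for 3 days with 5 ten-fold concentrations of each drug, and viability was read by CellTiter-Glo. Suffixes _1/_2/_3 on drug names are replicates.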

[3] = tested on: UT-SCC-106A; assay: relative IC50 (midpoint of the fitted curve; maximal inhibition may be below 50%); higher = less potent
Outline: (§1)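 HPV-negative HNSCC cell lines were seeded at 500 cells/well in 384-well plates on plastic, on Matrigel- or Myogel-coated wells (500 µg/mL), or embedded in Matrigel or Myogel plus rat collagen I. Compounds were given at five 10-fold concentrations for 3 days, and viability was read by CellTiter-Glo 2.0 luminescence. Signals were normalised to vehicle (0.1% DMSO) and cell-killing control wells. Percent-inhibition dose–response curves were fitted in the FIMM pipeline to derive IC50, maximal inhibition and drug sensitivity score.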

[4] = tested on: UT-SCC-8; assay: as above
Outline: as §1

[5] = tested on: UT-SCC-28; assay: as above
Outline: as §1

[6] = tested on: UT-SCC-24B; assay: as above
Outline: as §1

[7] = tested on: UT-SCC-40; assay: as above
Outline: as §1

[8] = tested on: UT-SCC-106A; assay: maximal % inhibition of viability relative to DMSO; higher = stronger effect
Method: (§2)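 HNSCC cell lines (500 cells/well, 384-well) were cultured on plastic, on top of (2D) or embedded (3D) in Matrigel or human leiomyoma matrix Myogel (500 ug/mL; Myogel 3D mixed with rat collagen I). Cells were treated for 3 days with 5 ten-fold concentrations of each drug, and viability was read by CellTiter-Glo. Viability was normalised to DMSO and benzethonium chloride controls and fitted with the FIMM DSRT pipeline to give IC50 (nM), maximal % inhibition and DSS. Suffixes _1/_2/_3 are replicates. Only inhibition-mode (IC50) fits are kept.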

[9] = tested on: UT-SCC-8; assay: as above
Method: as §2

[10] = tested on: UT-SCC-42A; assay: as above
Method: as §2

[11] = tested on: UT-SCC-14; assay: as above
Method: as §2

[12] = tested on: UT-SCC-44; assay: as above
Method: as §2

[13] = tested on: UT-SCC-81; assay: as above
Method: as §2

[14] = tested on: UT-SCC-28; assay: as above
Method: as §2

[15] = tested on: UT-SCC-42B; assay: as above
Method: as §2

[16] = tested on: UT-SCC-73; assay: as above
Method: as §2

[17] = tested on: UT-SCC-24B; assay: as above
Method: as §2

[18] = tested on: UT-SCC-40; assay: as above
Method: as §2

[19] = culture condition: embedded in Matrigel
[20] = culture condition: embedded in Myogel + collagen I
[21] = culture condition: on top of Matrigel
[22] = culture condition: on top of Myogel
[23] = culture condition: plastic 2D (no matrix)

Structure (SMILES): O=C(NC[C@H](O)CO)c1ccncc1Nc1ccc(I)cc1F [Pimasertib]
- maximal % inhibition of viability [1, 19]: 85 ± 0.94%
- maximal % inhibition of viability [1, 20]: 77.9 ± 2.9%
- maximal % inhibition of viability [1, 21]: 81.4 ± 1.8%
- maximal % inhibition of viability [1, 22]: 68 ± 3.4%
- maximal % inhibition of viability [1, 23]: 79.3 ± 2.7%
- drug sensitivity score [2, 19]: 34.8 ± 1.2 DSS
- drug sensitivity score [2, 20]: 18.5 ± 1.2 DSS
- drug sensitivity score [2, 21]: 31.6 ± 0.84 DSS
- drug sensitivity score [2, 22]: 15 ± 1.6 DSS
- drug sensitivity score [2, 23]: 28.3 ± 1.6 DSS
- relative IC50 [3, 19]: 11.7 nM
- relative IC50 [3, 20]: 491 nM
- relative IC50 [3, 21]: 11.5 nM
- relative IC50 [3, 22]: 768 nM
- relative IC50 [3, 23]: 19 nM
- relative IC50 [4, 19]: 122 nM
- relative IC50 [4, 20]: 773 nM
- relative IC50 [4, 21]: 159 nM
- relative IC50 [4, 22]: 163 nM
- relative IC50 [4, 23]: 228 nM
- relative IC50 [5, 19]: 76.8 nM
- relative IC50 [5, 21]: 98.8 nM
- relative IC50 [6, 19]: 150 nM
- relative IC50 [6, 20]: 212 nM
- relative IC50 [6, 21]: 184 nM
- relative IC50 [6, 22]: 653 nM
- relative IC50 [6, 23]: 102 nM
- relative IC50 [7, 19]: 12.9 nM
- relative IC50 [7, 20]: 45.4 nM
- relative IC50 [7, 21]: 30.1 nM
- relative IC50 [7, 22]: 89.4 nM
- relative IC50 [7, 23]: 89 nM
- maximal % inhibition of viability [8, 19]: 53.5 ± 4.2%
- maximal % inhibition of viability [8, 20]: 43.4 ± 1.8%
- maximal % inhibition of viability [8, 21]: 63.2 ± 0.68%
- maximal % inhibition of viability [8, 22]: 54.1 ± 3.3%
- maximal % inhibition of viability [8, 23]: 70 ± 1.2%
- maximal % inhibition of viability [9, 19]: 93.8 ± 1.2%
- maximal % inhibition of viability [9, 20]: 82.5 ± 1.6%
- maximal % inhibition of viability [9, 21]: 90.4 ± 0.76%
- maximal % inhibition of viability [9, 22]: 85.8 ± 2.3%
- maximal % inhibition of viability [9, 23]: 90.3 ± 2.2%
- maximal % inhibition of viability [10, 19]: 61.3 ± 7.5%
- maximal % inhibition of viability [10, 20]: 51.3 ± 6.6%
- maximal % inhibition of viability [10, 21]: 63.2 ± 0.95%
- maximal % inhibition of viability [10, 22]: 55.7 ± 5.7%
- maximal % inhibition of viability [10, 23]: 60.4 ± 7.4%
- maximal % inhibition of viability [11, 19]: 64.8 ± 6.5%
- maximal % inhibition of viability [11, 20]: 59.6 ± 4.5%
- maximal % inhibition of viability [11, 21]: 59.6 ± 6.8%
- maximal % inhibition of viability [11, 22]: 54.7 ± 9.3%
- maximal % inhibition of viability [11, 23]: 57.1 ± 10%
- maximal % inhibition of viability [12, 19]: 93.77 ± 0.93%
- maximal % inhibition of viability [12, 20]: 66.6 ± 8.2%
- maximal % inhibition of viability [12, 21]: 81.8 ± 2.8%
- maximal % inhibition of viability [12, 22]: 66.3 ± 3.5%
- maximal % inhibition of viability [12, 23]: 69.6 ± 7.2%
- maximal % inhibition of viability [13, 19]: 88.7 ± 1.7%
- maximal % inhibition of viability [13, 20]: 68.2 ± 0.36%
- maximal % inhibition of viability [13, 21]: 86.1 ± 0.46%
- maximal % inhibition of viability [13, 22]: 71.2 ± 2.8%
- maximal % inhibition of viability [13, 23]: 78.6 ± 1.5%
- maximal % inhibition of viability [14, 19]: 54.1 ± 6.8%
- maximal % inhibition of viability [14, 20]: 51 ± 6.3%
- maximal % inhibition of viability [14, 21]: 54.8 ± 1.5%
- maximal % inhibition of viability [14, 23]: 32.7 ± 3.9%
- maximal % inhibition of viability [15, 19]: 70.2 ± 1.9%
- maximal % inhibition of viability [15, 21]: 59.9 ± 2.8%
- maximal % inhibition of viability [15, 22]: 53 ± 2.7%
- maximal % inhibition of viability [15, 23]: 49.2 ± 3.8%
- maximal % inhibition of viability [16, 19]: 86.2 ± 1.2%
- maximal % inhibition of viability [16, 20]: 78.7 ± 13%
- maximal % inhibition of viability [16, 21]: 81.93 ± 0.55%
- maximal % inhibition of viability [16, 22]: 76.4 ± 1.3%
- maximal % inhibition of viability [16, 23]: 79.6 ± 1.4%
- maximal % inhibition of viability [17, 19]: 72.7 ± 1.5%
- maximal % inhibition of viability [17, 20]: 79.1 ± 8.2%
- maximal % inhibition of viability [17, 21]: 75.8 ± 2.7%
- maximal % inhibition of viability [17, 22]: 67.9 ± 2.7%
- maximal % inhibition of viability [17, 23]: 88.9 ± 1.2%
- maximal % inhibition of viability [18, 19]: 80.6 ± 0.3%
- maximal % inhibition of viability [18, 20]: 72.8 ± 3.5%
- maximal % inhibition of viability [18, 21]: 77.77 ± 0.35%
- maximal % inhibition of viability [18, 22]: 64.6 ± 2.5%
- maximal % inhibition of viability [18, 23]: 64.5 ± 4.9%
